Values joined by “and” are separate entries in the source; they are usually repeats but may differ in a detail not shown here. Identical values can stand only once. Inconclusive results and toxic doses are left out.

The assay deals with L1210 leukemia ip in BDF1 mice, survival T/C. Kind of assay: NCI In Vivo Anticancer Drug Screen. Data for tumor model L1210 Leukemia (intraperitoneal) in B6D2F1 (BDF1) mice. Particulars: endpoint: mean survival time, higher = longer survival. The procedure, abridged: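 In this screen, tumor-bearing mice given compound are compared to those given vehicle, and their survival values are reported as a treated-to-control quotient.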

The mark [1] stands for this setting: dose: 25.0 mg/kg/injection, schedule: Q01DX009 (ip), vehicle: saline with Tween-80.
Where [2] appears, read: dose: 50.0 mg/kg/injection, schedule: Q01DX009 (ip), vehicle: saline with Tween-80.
The mark [3] stands for this setting: dose: 100.0 mg/kg/injection, schedule: Q01DX009 (ip), vehicle: saline with Tween-80.
Setting [4] is: dose: 100.0 mg/kg/injection, schedule: Q04DX003 (ip), vehicle: saline with Tween-80.
[5] abbreviates: dose: 100.0 mg/kg/injection, schedule: Q01DX001 (ip), vehicle: saline.
Where [6] appears, read: dose: 200.0 mg/kg/injection, schedule: Q01DX001 (ip), vehicle: saline.
The mark [7] stands for this setting: dose: 400.0 mg/kg/injection, schedule: Q01DX001 (ip), vehicle: saline.
[8] abbreviates: dose: 100.0 mg/kg/injection, schedule: Q01DX001 (ip), vehicle: carboxymethylcellulose (CMC).
The mark [9] stands for this setting: dose: 200.0 mg/kg/injection, schedule: Q01DX001 (ip), vehicle: carboxymethylcellulose (CMC).
The mark [10] stands for this setting: dose: 400.0 mg/kg/injection, schedule: Q01DX001 (ip), vehicle: carboxymethylcellulose (CMC).
Where [11] appears, read: dose: 200.0 mg/kg/injection, schedule: Q01DX009 (ip), vehicle: saline with Tween-80.
The mark [12] stands for this setting: dose: 400.0 mg/kg/injection, schedule: Q01DX009 (ip), vehicle: saline with Tween-80.
The mark [13] stands for this setting: dose: 100.0 mg/kg/injection, schedule: Q04DX003 (ip), vehicle: saline.
[14] abbreviates: dose: 200.0 mg/kg/injection, schedule: Q04DX003 (ip), vehicle: saline.
Setting [15] is: dose: 400.0 mg/kg/injection, schedule: Q04DX003 (ip), vehicle: saline.

Consider `CCCCCCc1nc2nc(Cl)c(Cl)nc2[nH]1`, for which the T/C is, setting by setting: under setting [1], 93 % of control; (dose: 25.0 mg/kg/injection, schedule: Q04DX003 (ip), vehicle: saline with Tween-80) 105 % of control; under setting [2], 96 % of control; (dose: 50.0 mg/kg/injection, schedule: Q04DX003 (ip), vehicle: saline with Tween-80) 98 % of control; under setting [3], 106 % of control; under setting [4], 95 % of control and 103 % of control. Besides, the T/C (dose: 150.0 mg/kg/injection, schedule: Q01DX009 (ip), vehicle: saline with Tween-80) was 98 % of control.
In the case of `CC(=O)OCc1ccnc2ccc(OC(C)=O)cc12`, the T/C was 100 % of control under setting [5], 98 % of control under setting [6] and 96 % of control under setting [7].
Consider `O=P(NO)(c1ccccc1)c1ccccc1`, for which the T/C is 92 % of control under setting [8], 95 % of control under setting [9] and 95 % of control under setting [10].
For the compound `CNC(=O)c1ccc(NC(=O)Nc2ccc(C3=NCCCN3)cc2)cc1NC(=O)Nc1ccc(C2=NCCCN2)cc1`, the T/C by setting is: (dose: 11.5 mg/kg/injection, schedule: Q01DX Z (ip), vehicle: carboxymethylcellulose (CMC)) 108 % of control; (dose: 23.0 mg/kg/injection, schedule: Q01DX Z (ip), vehicle: carboxymethylcellulose (CMC)) 107 % of control; (dose: 46.0 mg/kg/injection, schedule: Q01DX Z (ip), vehicle: carboxymethylcellulose (CMC)) 166 % of control; (dose: 62.0 mg/kg/injection, schedule: Q01DX Z (oral), vehicle: carboxymethylcellulose (CMC)) 111 % of control; (dose: 92.0 mg/kg/injection, schedule: Q01DX Z (ip), vehicle: carboxymethylcellulose (CMC)) 177 % of control; (dose: 125.0 mg/kg/injection, schedule: Q01DX Z (oral), vehicle: carboxymethylcellulose (CMC)) 109 % of control. The T/C is 108 % of control (dose: 250.0 mg/kg/injection, schedule: Q01DX Z (oral), vehicle: carboxymethylcellulose (CMC)) and 108 % of control (dose: 500.0 mg/kg/injection, schedule: Q01DX Z (oral), vehicle: carboxymethylcellulose (CMC)).
For the compound `CCC1c2ccc3cc(OC)ccc3c2C(=O)C1CC(=O)O` (stereo unspecified), the T/C is, setting by setting: under setting [5], 93 % of control; under setting [6], 107 % of control.
Take `CC(CC(C#N)(c1ccccc1)c1ccccc1)OS(C)(=O)=O` (stereo unspecified): the T/C is, setting by setting: under setting [8], 94 % of control; under setting [9], 94 % of control; under setting [10], 94 % of control.
With `O=C(COc1cc(Cl)c(Cl)cc1Cl)OCCN(CCOC(=O)COc1cc(Cl)c(Cl)cc1Cl)C(=O)COc1ccc(Cl)cc1`, the T/C (dose: 100.0 mg/kg/injection, schedule: Q01DX009 (ip), vehicle: other) was 92 % of control; the T/C (dose: 200.0 mg/kg/injection, schedule: Q01DX009 (ip), vehicle: other) was 92 % of control; the T/C (dose: 400.0 mg/kg/injection, schedule: Q01DX009 (ip), vehicle: other) is 102 % of control.
With `Oc1cc2c(cc1O)CN1CCc3cc(O)c(O)cc3C1C2` (stereo unspecified), the T/C was 103 % of control (dose: 75.0 mg/kg/injection, schedule: Q01DX001 (ip), vehicle: saline); 105 % of control (dose: 150.0 mg/kg/injection, schedule: Q01DX001 (ip), vehicle: saline); 93 % of control (dose: 300.0 mg/kg/injection, schedule: Q01DX001 (ip), vehicle: saline).
As to `O=C1OC(c2ccccc2)CC1N1CCCCC1` (stereo unspecified), the T/C (dose: 100.0 mg/kg/injection, schedule: Q01DX001 (ip), vehicle: saline sonified) was 109 % of control and the T/C (dose: 200.0 mg/kg/injection, schedule: Q01DX001 (ip), vehicle: saline sonified) is 105 % of control.
`CC(=O)NC1C(OS(=O)(=O)c2ccc(C)cc2)C(NC(C)=O)C(OC(C)=O)C(OC(C)=O)C1OC(C)=O` (stereo unspecified): the T/C runs as follows: under setting [3], 102 % of control; under setting [11], 109 % of control; under setting [12], 100 % of control.
`Cc1cc(C2=NCC(C)(C)S2)ccc1O`: the T/C was 92 % of control (dose: 25.0 mg/kg/injection, schedule: Q01DX005 (ip), vehicle: saline with Tween-80); 91 % of control under setting [1]; 92 % of control (dose: 50.0 mg/kg/injection, schedule: Q01DX005 (ip), vehicle: saline with Tween-80); 98 % of control under setting [2]; 93 % of control and 105 % of control (dose: 100.0 mg/kg/injection, schedule: Q01DX005 (ip), vehicle: saline with Tween-80); 98 % of control under setting [3]. Moreover, the T/C by setting is: (dose: 100.0 mg/kg/injection, schedule: Q04DX002 (ip), vehicle: saline with Tween-80) 100 % of control; (dose: 200.0 mg/kg/injection, schedule: Q04DX002 (ip), vehicle: saline with Tween-80) 96 % of control; (dose: 400.0 mg/kg/injection, schedule: Q04DX002 (ip), vehicle: saline with Tween-80) 88 % of control.
Regarding `O=S(=O)(c1ccccc1)C1CC1c1ccc(Cl)cc1` (stereo unspecified), the T/C runs as follows: under setting [5], 97 % of control; under setting [13], 104 % of control; under setting [6], 92 % of control; under setting [14], 96 % of control; under setting [7], 98 % of control; under setting [15], 96 % of control.
As to `CCOC(=O)/C(C#N)=C\c1cc(=O)c(OC)co1`, the T/C under setting [13] is 98 % of control, the T/C under setting [14] was 104 % of control and the T/C under setting [15] is 102 % of control.
In the case of `Nc1nc(N)nc(-c2ccc(Cl)cc2)n1`, the T/C reads like this: (dose: 25.0 mg/kg/injection, schedule: Q01DX001 (ip), vehicle: saline with Tween-80) 96 % of control; (dose: 50.0 mg/kg/injection, schedule: Q01DX001 (ip), vehicle: saline with Tween-80) 98 % of control; (dose: 100.0 mg/kg/injection, schedule: Q01DX001 (ip), vehicle: saline with Tween-80) 101 % of control.
For the compound `O=C(Nc1ccc(CCO)cc1)Nc1cc([N+](=O)[O-])ccc1Cl`, the T/C runs as follows: (dose: 12.5 mg/kg/injection, schedule: Q01DX009 (ip), vehicle: Klucel (hydroxypropylcellulose) (HPC)) 102 % of control; (dose: 25.0 mg/kg/injection, schedule: Q01DX009 (ip), vehicle: Klucel (hydroxypropylcellulose) (HPC)) 104 % of control; (dose: 50.0 mg/kg/injection, schedule: Q01DX009 (ip), vehicle: Klucel (hydroxypropylcellulose) (HPC)) 91 % of control.
With `COC(=O)CNC(=O)C(Cc1ccc(OCc2ccccc2)cc1)NC=O` (stereo unspecified), the T/C runs as follows: under setting [3], 89 % of control; under setting [4], 105 % of control; under setting [11], 90 % of control; (dose: 200.0 mg/kg/injection, schedule: Q04DX003 (ip), vehicle: saline with Tween-80) 100 % of control; under setting [12], 90 % of control; (dose: 400.0 mg/kg/injection, schedule: Q04DX003 (ip), vehicle: saline with Tween-80) 102 % of control.
`CCC[CH2][Sn]([Cl])([CH2]CCC)[S]C(=S)NCCNC(=S)[S][Sn]([Cl])([CH2]CCC)[CH2]CCC`: the T/C is 98 % of control (dose: 6.0 mg/kg/injection, schedule: Q04DX002 (ip), vehicle: other); 117 % of control (dose: 12.0 mg/kg/injection, schedule: Q04DX002 (ip), vehicle: other); 102 % of control (dose: 25.0 mg/kg/injection, schedule: Q04DX002 (ip), vehicle: other).
Regarding `CCn1c(=O)cn[nH]c1=O`, the T/C reads like this: (dose: 50.0 mg/kg/injection, schedule: Q01DX009 (ip), vehicle: saline) 97 % of control; (dose: 100.0 mg/kg/injection, schedule: Q01DX009 (ip), vehicle: saline) 97 % of control; (dose: 200.0 mg/kg/injection, schedule: Q01DX009 (ip), vehicle: saline) 94 % of control.
Turning to `Nc1cc(Cl)cc2cc(Br)cnc12`, the T/C runs as follows: (dose: 100.0 mg/kg/injection, schedule: Q04DX003 (ip), vehicle: Klucel (hydroxypropylcellulose) (HPC)) 101 % of control; (dose: 200.0 mg/kg/injection, schedule: Q04DX003 (ip), vehicle: Klucel (hydroxypropylcellulose) (HPC)) 98 % of control; (dose: 400.0 mg/kg/injection, schedule: Q04DX003 (ip), vehicle: Klucel (hydroxypropylcellulose) (HPC)) 95 % of control.

The values above are taken from PubChem BioAssay AID248 (DTP/NCI, 2004).
